Assay results taken from ChEMBL document CHEMBL4392822, “HSP60/10 chaperonin systems are inhibited by a variety of approved drugs, natural products, and known bioactive molecules” (Bioorg Med Chem Lett, 2019).

What was measured:
E. coli GroEL/ES [1] = molecular target: T1, E. coli GroEL/ES (Escherichia coli, UniProt P0A6F5)
Description: Inhibition of Escherichia coli GroEL expressed in Escherichia coliDH5alpha/Escherichia coli GroES expressed in Escherichia coli BL21 (DE3) assessed as reduction in GroEL/GroES-mediated denatured soluble pig heart MDH refolding by measuring MDH enzyme activity using sodium mesoxalate as substrate after 20 to 40 mins by malachite green dye based spectrometric analysis

HSP60/HSP10 = HSP60/HSP10 (Homo sapiens, UniProt P10809);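 note: His-tagged human HSP60 with HSP10 refolding denatured MDH, read as MDH activity on mesoxalate by malachite green spectrometry, inhibition of refolding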
Description: Inhibition of human N-terminal octa-His-tagged HSP60 expressed in Escherichia coli Rosetta(DE3) pLysS/human HSP10 expressed in Escherichia coli Rosetta(DE3) assessed as reduction in HSP60/HSP10-mediated denatured MDH refolding by measuring MDH enzyme activity using sodium mesoxalate as substrate after 40 to 60 mins by malachite green dye based spectrometric analysis

[2] = molecular target: T2, Thiosulfate sulfurtransferase (Homo sapiens, UniProt Q16762); assay type: ADME;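 note: native rhodanese of unspecified species, enzyme activity read after 45 min by spectrophotometric detection of Fe(SCN)3 colour, IC50 reflects activity reduction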
T2 sequence (Q16762 whole entry): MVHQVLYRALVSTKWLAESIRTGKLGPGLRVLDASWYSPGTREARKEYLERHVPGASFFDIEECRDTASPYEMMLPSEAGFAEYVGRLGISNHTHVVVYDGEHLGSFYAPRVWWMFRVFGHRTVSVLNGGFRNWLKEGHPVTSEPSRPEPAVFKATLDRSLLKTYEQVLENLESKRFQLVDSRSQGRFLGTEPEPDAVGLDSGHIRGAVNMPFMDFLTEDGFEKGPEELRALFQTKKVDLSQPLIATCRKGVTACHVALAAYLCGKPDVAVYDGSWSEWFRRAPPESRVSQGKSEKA
Description: Inhibition of native rhodanese (unknown origin) assessed as reduction in rhodanese enzyme activity after 45 mins by Fe(SCN)3 dye based spectrometric analysis

E. coli GroEL/ES [3] = molecular target: T1, E. coli GroEL/ES; remark: listed apart in the source
Description: Inhibition of Escherichia coli GroEL expressed in Escherichia coli DH5alpha/Escherichia coli GroES expressed in Escherichia coli BL21 (DE3) assessed as reduction in GroEL/GroES-mediated denatured rhodanese refolding by measuring rhodanese enzyme activity after 45 mins by Fe(SCN)3 dye based spectrometric analysis

Chaperonin GroEL = Chaperonin GroEL (Escherichia coli (strain K12), UniProt P0A6F5);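 note: inhibition of GroEL ATPase activity with ATP as substrate, 60 min incubation, spectrometric read-out, recombinant enzyme produced in Escherichia coli DH5alpha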
Sequence of Chaperonin GroEL (P0A6F5 whole entry): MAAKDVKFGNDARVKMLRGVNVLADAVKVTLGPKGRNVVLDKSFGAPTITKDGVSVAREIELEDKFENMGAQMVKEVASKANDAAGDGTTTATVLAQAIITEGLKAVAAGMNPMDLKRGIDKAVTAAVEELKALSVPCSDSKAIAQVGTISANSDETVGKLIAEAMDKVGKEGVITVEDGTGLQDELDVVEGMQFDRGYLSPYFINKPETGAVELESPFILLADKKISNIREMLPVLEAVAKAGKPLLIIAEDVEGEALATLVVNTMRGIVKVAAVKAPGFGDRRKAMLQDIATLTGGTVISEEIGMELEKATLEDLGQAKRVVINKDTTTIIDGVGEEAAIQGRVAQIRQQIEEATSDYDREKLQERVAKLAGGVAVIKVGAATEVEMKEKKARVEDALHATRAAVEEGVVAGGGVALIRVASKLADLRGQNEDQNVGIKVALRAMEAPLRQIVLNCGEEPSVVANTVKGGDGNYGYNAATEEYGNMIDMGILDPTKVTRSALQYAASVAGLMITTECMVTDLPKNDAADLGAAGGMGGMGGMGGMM
Description: Inhibition of ATPase activity of Escherichia coli GroEL expressed in Escherichia coliDH5alpha incubated for 60 mins using ATP by spectrometric analysis

T1 sequence (P0A6F5 whole entry, looked up): as the sequence (P0A6F5 whole entry) above
Sequence of HSP60/HSP10 (P10809 whole entry): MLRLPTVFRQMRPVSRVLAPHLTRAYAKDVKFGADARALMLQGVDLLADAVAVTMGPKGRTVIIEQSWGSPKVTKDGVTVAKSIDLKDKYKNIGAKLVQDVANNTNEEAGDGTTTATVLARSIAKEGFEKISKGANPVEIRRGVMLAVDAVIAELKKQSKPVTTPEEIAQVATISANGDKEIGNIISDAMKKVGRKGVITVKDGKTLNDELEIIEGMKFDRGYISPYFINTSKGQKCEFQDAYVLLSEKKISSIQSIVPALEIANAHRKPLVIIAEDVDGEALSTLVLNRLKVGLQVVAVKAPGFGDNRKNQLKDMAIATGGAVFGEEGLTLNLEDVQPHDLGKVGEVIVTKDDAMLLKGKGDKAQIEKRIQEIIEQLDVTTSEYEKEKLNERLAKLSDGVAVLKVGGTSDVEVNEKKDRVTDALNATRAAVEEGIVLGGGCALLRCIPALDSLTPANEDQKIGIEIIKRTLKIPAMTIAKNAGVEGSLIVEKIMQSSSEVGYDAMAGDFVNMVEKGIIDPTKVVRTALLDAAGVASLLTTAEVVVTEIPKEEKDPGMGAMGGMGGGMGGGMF
Sequence of HSP60/HSP10 (P61604 whole entry, further chain): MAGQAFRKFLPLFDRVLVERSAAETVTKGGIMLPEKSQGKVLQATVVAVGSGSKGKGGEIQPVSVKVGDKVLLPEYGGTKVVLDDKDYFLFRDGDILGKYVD

| Compound | IC50 (E. coli GroEL/ES [1]) [µM] | IC50 (HSP60/HSP10) [µM] | IC50 [2] [µM] | IC50 (E. coli GroEL/ES [3]) [µM] | IC50 (Chaperonin GroEL) [µM] |
| --- | --- | --- | --- | --- | --- |
| CCOc1nc2cccc(C(=O)O)c2n1Cc1ccc(-c2ccccc2-c2nnn[nH]2)cc1 | > 100 | > 100 | > 100 | > 250 | – |
| CCCCN1CCC(COC(=O)c2cc(Cl)c(N)c3c2OCCO3)CC1 | > 100 | > 100 | > 100 | > 250 | – |
| COc1ccc(-c2ccc3cc(C(=O)O)ccc3c2)cc1C12CC3CC(CC(C3)C1)C2 | 2.1 | 2.3 | > 100 | 5.1 | > 250 |
| Cc1cc2c(C(C)C)c(O)c(O)c(C=O)c2c(O)c1-c1c(C)cc2c(C(C)C)c(O)c(O)c(C=O)c2c1O | 0.66 | 1.2 | 11 | 0.43 | > 250 |
| CC[C@H](C)C1O[C@]2(C=C[C@@H]1C)C[C@@H]1C[C@@H](C/C=C(\C)[C@@H](O[C@H]3C[C@H](OC)[C@@H](O[C@H]4C[C@H](OC)[C@H](NC(C)=O)[C@H](C)O4)[C@H](C)O3)[C@@H](C)/C=C/C=C3\CO[C@@H]4[C@H](O)C(C)=C[C@@H](C(=O)O1)[C@]34O)O2 (some centres undefined) | 11 | 17 | > 100 | 38 | > 250 |
| COc1cc(-c2ccc(/N=N/c3ccc4c(S(=O)(=O)O)cc(S(=O)(=O)O)c(N)c4c3O)c(OC)c2)ccc1/N=N/c1ccc2c(S(=O)(=O)O)cc(S(=O)(=O)O)c(N)c2c1O | 3.9 | – | 8.5 | 2 | – |
| CCCCCCCCCCCCCCCCC(C(=O)O)C(O)(CC(=O)O)C(=O)O (centres undefined) | 3.5 | 4 | > 100 | 8.9 | > 250 |
| O=C(/C=C/c1ccccc1)c1ccc(O)cc1 [4'-HYDROXYCHALCONE] | 21 | 20 | > 100 | 56 | > 250 |
| COc1ccc(C(=O)/C=C/c2ccccc2)cc1 [4'-METHOXYCHALCONE] | 13 | 16 | > 100 | 30 | > 250 |
| O=C(/C=C/c1ccc(O)cc1)c1ccccc1 [4-HYDROXYCHALCONE] | 21 | 22 | > 100 | 40 | > 250 |
| CCCCCCCCCc1ccc(O)cc1 [4-NONYLPHENOL] | 12 | 9.5 | 72 | 29 | > 250 |
| CC[C@H](C)[C@H]1O[C@]2(C=C[C@@H]1C)C[C@@H]1C[C@@H](C/C=C(\C)[C@@H](O[C@H]3C[C@H](OC)[C@@H](O[C@H]4C[C@H](OC)[C@@H](O)[C@H](C)O4)[C@H](C)O3)[C@@H](C)/C=C/C=C3\CO[C@@H]4[C@H](O)C(C)=C[C@@H](C(=O)O1)[C@]34O)O2 [ABAMECTIN COMPONENT B1A] | 9.8 | 15 | > 100 | 32 | > 250 |
| CC(C)(C)NCC(O)c1ccc(O)c(CO)c1 (centres undefined) [ALBUTEROL] | > 100 | > 100 | > 100 | > 250 | – |
| CCCCC/C=C\C/C=C\C/C=C\C/C=C\CCCC(=O)O [ARACHIDONIC ACID] | 7.3 | 4.5 | > 100 | 18 | > 250 |
| CCCCCCCCCCCCCCCC(=O)OC[C@H](O)[C@H]1OC(=O)C(O)=C1O [ASCORBYL PALMITATE] | 3.5 | 3.1 | 53 | 8.5 | 177 |
| O=C(O)C1=CC(=C(c2ccc(O)c(C(=O)O)c2)c2ccc(O)c(C(=O)O)c2)C=CC1=O [AURINTRICARBOXYLIC ACID] | 0.9 | 3.2 | > 100 | 0.57 | > 250 |
| CCc1oc2ccccc2c1C(=O)c1cc(Br)c(O)c(Br)c1 [BENZBROMARONE] | 18 | 9.1 | > 100 | 49 | > 250 |
| Oc1c(Cl)cc(Cl)cc1Sc1cc(Cl)cc(Cl)c1O [BITHIONOL] | 4.3 | 2.8 | > 100 | 13 | > 250 |
| C=C1CC[C@H](O)C/C1=C/C=C1\CCC[C@]2(C)[C@@H]([C@H](C)CCCC(C)C)CC[C@@H]12 [CHOLECALCIFEROL] | 22 | 11 | > 100 | 31 | > 250 |
| Cc1cc(C(C#N)c2ccc(Cl)cc2)c(Cl)cc1NC(=O)c1cc(I)cc(I)c1O (centres undefined) [CLOSANTEL] | – | 2.8 | > 100 | 2 | > 250 |

| Compound | IC50 (E. coli GroEL/ES [1]) [µM] | IC50 (HSP60/HSP10) [µM] | IC50 [2] [µM] | IC50 (E. coli GroEL/ES [3]) [µM] | IC50 (Chaperonin GroEL) [µM] |
| --- | --- | --- | --- | --- | --- |
| COc1cc(/C=C/C(=O)CC(=O)/C=C/c2ccc(O)c(OC)c2)ccc1O [CURCUMIN] | 3.1 | 8.3 | 56 | 2.9 | > 250 |
| Oc1ccc(Cl)cc1Cc1cc(Cl)ccc1O [DICHLOROPHEN] | 24 | 17 | > 100 | 66 | > 250 |
| O=C(O[C@@H]1Cc2c(O)cc(O)cc2O[C@@H]1c1cc(O)c(O)c(O)c1)c1cc(O)c(O)c(O)c1 [EPIGALOCATECHIN GALLATE] | 0.36 | 2.3 | 7.3 | 0.58 | > 250 |
| C=C1CC[C@H](O)C/C1=C/C=C1\CCC[C@]2(C)[C@@H]([C@H](C)/C=C/[C@H](C)C(C)C)CC[C@@H]12 [ERGOCALCIFEROL] | 28 | 45 | – | 41 | > 250 |
| CC[C@H]1OC(=O)[C@H](C)[C@@H](O[C@H]2C[C@@](C)(OC)[C@@H](O)[C@H](C)O2)[C@H](C)[C@@H](O[C@@H]2O[C@H](C)C[C@H](N(C)C)[C@H]2O)[C@](C)(O)C[C@@H](C)C(=O)[C@H](C)[C@@H](O)[C@]1(C)O [ERYTHROMYCIN] | > 100 | > 100 | > 100 | 178 | > 250 |
| C=C(CC)C(=O)c1ccc(OCC(=O)O)c(Cl)c1Cl [ETHACRYNIC ACID] | 5.2 | 8.5 | > 100 | 4.7 | > 250 |
| Cc1cc(-c2ccc(/N=N/c3ccc4c(S(=O)(=O)O)cc(S(=O)(=O)O)c(N)c4c3O)c(C)c2)ccc1/N=N/c1ccc2c(S(=O)(=O)O)cc(S(=O)(=O)O)c(N)c2c1O [EVANS BLUE] | 0.039 | 0.17 | 8.7 | 0.087 | 161 |
| CC1=NCCc2c1[nH]c1cc(O)ccc21 [HARMALOL] | > 100 | > 100 | – | – | > 250 |
| O=C1C=C2CC3(O)COc4c(ccc(O)c4O)C3=C2C=C1O (centres undefined) [HEMATEIN] | 1.8 | 3.6 | 12 | – | > 250 |
| C[C@H](CCC(=O)O)[C@H]1CC[C@H]2[C@@H]3CC[C@@H]4C[C@H](O)CC[C@]4(C)[C@H]3CC[C@]12C [LITHOCHOLIC ACID] | – | 10 | > 100 | 59 | > 250 |
| Nc1ccc(O)c(C(=O)O)c1 [MESALAMINE] | – | – | 0.28 | – | – |
| CN(C)c1ccc2nc3ccc(=[N+](C)C)cc-3sc2c1 [METHYLENE BLUE] | – | > 100 | 6.1 | – | – |
| CC(=O)O[C@H]1C(=O)[C@@]2(C)[C@H]([C@H](OC(=O)c3ccccc3)[C@]3(O)C[C@H](OC(=O)[C@H](O)[C@@H](NC(=O)c4ccccc4)c4ccccc4)C(C)=C1C3(C)C)[C@]1(OC(C)=O)CO[C@@H]1C[C@@H]2O [PACLITAXEL] | 56 | > 100 | – | 114 | > 250 |
| COc1cc(NC(C)CCCN)c2ncccc2c1 (centres undefined) [PRIMAQUINE] | – | > 100 | 2.9 | – | – |
| Cc1cc2nc3c(=O)[nH]c(=O)nc-3n(C[C@H](O)[C@H](O)[C@H](O)COP(=O)(O)O)c2cc1C [RIBOFLAVIN 5'-PHOSPHATE SODIUM] | 85 | – | 0.38 | 0.77 | > 250 |
| Cc1cc2nc3c(=O)[nH]c(=O)nc-3n(C[C@H](O)[C@H](O)[C@H](O)CO)c2cc1C [RIBOFLAVIN] | > 100 | > 100 | – | 18 | > 250 |
| Cc1ccc(C(=O)Nc2ccc(S(=O)(=O)O)c3cc(S(=O)(=O)O)cc(S(=O)(=O)O)c23)cc1NC(=O)c1cccc(NC(=O)Nc2cccc(C(=O)Nc3cc(C(=O)Nc4ccc(S(=O)(=O)O)c5cc(S(=O)(=O)O)cc(S(=O)(=O)O)c45)ccc3C)c2)c1 [SURAMIN] | – | 7.2 | > 100 | – | > 250 |
| C=C(NC(=O)C(=C)NC(=O)c1csc(C2=N[C@@H]3c4csc(n4)[C@H]4NC(=O)c5csc(n5)[C@H]([C@](C)(O)[C@@H](C)O)NC(=O)[C@H]5CSC(=N5)/C(=C/C)NC(=O)[C@H]([C@@H](C)O)NC(=O)c5csc(n5)[C@]3(CC2)NC(=O)[C@H](C)NC(=O)C(=C)NC(=O)[C@H](C)NC(=O)[C@H]([C@@H](C)CC)N[C@@H]2C=Cc3c([C@H](C)O)cc(nc3[C@H]2O)C(=O)O[C@@H]4C)n1)C(N)=O [THIOSTREPTON] | 6.8 | 13 | > 100 | – | > 250 |
| CC1=C(/C=C/C(C)=C/C=C/C(C)=C/C(=O)O)C(C)(C)CCC1 [TRETINOIN] | 6.7 | 5.3 | – | 21 | > 250 |
| IVERMECTIN | – | – | > 100 | – | > 250 |
